Test system: SMN2 FL and SMN2 Δ7 mRNA
Experiment: RT-qPCR analysis of SMN2 full length (FL) and Δ7 mRNAs in cultured cells
Format: cell-based, human
Details: FIG. 1
Experimental: Cells are plated at a certain density in an appropriate medium in 96-well flat-bottom plates. The plate is immediately swirled to ensure even distribution of the cells to ensure the formation of an even monolayer of cells and incubated for 6-24 hrs at 37° C. Cells are then treated with serially diluted test compound (e.g., 3.16-fold dilution factor, 0.5% final concentration of DMSO), in duplicate, for desired time under appropriate conditions (e.g., 37° C., 5% CO2, 100% relative humidity). After supernatant removal, cells are lysed (e.g., in Cells-To-Ct lysis buffer, Life Technologies). The levels of RNA of interest, and a reference RNA (e.g., GAPDH mRNA) are quantified (e.g., by using Taqman-based RT-qPCR) by assays designed to detect each mRNA of interest specifically. The forward and reverse primers are used at the appropriate concentration (e.g., 0.1-1 μM), as well as the probe (e.g., 0.1 to 0.3 μM). GAPDH primers are typically at 0.1 μM and the probe at 0.075 μM. RT-qPCR is carried out using an appropriate protocol. One example of such a protocol is the following temperatures for indicated time: Step 1: 48° C. (15 min); Step 2: 95° C. (10 min); Step 3: 95° C. (15 sec); Step 4: 60° C. (1 min); then, repeat Steps 3 and 4 for a total of 40 cycles. Fluorescence is recorded in each cycle at the end of the Step 4 incubation. […] The Ct values for each mRNA are converted to mRNA abundance using actual PCR efficiencies, and may be calculated essentially as described in Liu and Saint (Anal Biochem 302:52). […]
GM03813 (Coriell Institute) and PNN 1-46 fibroblasts (Columbia University) derived from SMA Type I patients were plated at 5,000 cells/well in 200 μL Dulbecco's modified Eagle's medium (DMEM) with GlutaMAX and 10% fetal bovine serum (FBS) (Life Technologies, Inc.) in 96-well plates, and incubated for 6 hours in a cell culture incubator (37° C., 5% CO2, 100% relative humidity). […] The mRNA levels of SMN2 FL, SMN2 Δ7 and GAPDH were quantified using Taqman-based RT-qPCR and SMN2-specific primers and probes in Table 5 (purchased from Life Technologies, Inc.). […]

[1] = SMA Type I patient fibroblasts, treatment for 24 hours

CCN1CCC(c2cc(C)c3nc(-c4cc5c(C)nc(C)cn5n4)cc(=O)n3c2)CC1 [Compound 702]
splicing alteration of SMN2 transcripts (SMA Type I fibroblast cells (PNN 1-46), 500 nM, 24 hours): complete splicing alteration of all SMN2 transcripts
expression of exon 7 lacking (Δ7) mRNA [1]: dose dependent expression
expression of full length (FL) mRNA [1]: dose dependent expression
